One block for each molecule: values may come before it. Calls of active or inactive are those of the source. The calls are words filed in the database; no cut-off is given here. Peptide text beside a SMILES is read from it.
Experiments:
[1] = biological target: T1, Sodium/glucose cotransporter 1 (Homo sapiens) (UniProt P13866); test: Inhibition of human SGLT1 expressed in xenopus laevis oocyte assessed as inhibition of methyl-alpha-D-[14C]glucopyranoside uptake at 75 pmol after 1 hr relative to control; set-up: Activity: scale not given: the % may be the effect or the level left
T1 sequence (whole entry): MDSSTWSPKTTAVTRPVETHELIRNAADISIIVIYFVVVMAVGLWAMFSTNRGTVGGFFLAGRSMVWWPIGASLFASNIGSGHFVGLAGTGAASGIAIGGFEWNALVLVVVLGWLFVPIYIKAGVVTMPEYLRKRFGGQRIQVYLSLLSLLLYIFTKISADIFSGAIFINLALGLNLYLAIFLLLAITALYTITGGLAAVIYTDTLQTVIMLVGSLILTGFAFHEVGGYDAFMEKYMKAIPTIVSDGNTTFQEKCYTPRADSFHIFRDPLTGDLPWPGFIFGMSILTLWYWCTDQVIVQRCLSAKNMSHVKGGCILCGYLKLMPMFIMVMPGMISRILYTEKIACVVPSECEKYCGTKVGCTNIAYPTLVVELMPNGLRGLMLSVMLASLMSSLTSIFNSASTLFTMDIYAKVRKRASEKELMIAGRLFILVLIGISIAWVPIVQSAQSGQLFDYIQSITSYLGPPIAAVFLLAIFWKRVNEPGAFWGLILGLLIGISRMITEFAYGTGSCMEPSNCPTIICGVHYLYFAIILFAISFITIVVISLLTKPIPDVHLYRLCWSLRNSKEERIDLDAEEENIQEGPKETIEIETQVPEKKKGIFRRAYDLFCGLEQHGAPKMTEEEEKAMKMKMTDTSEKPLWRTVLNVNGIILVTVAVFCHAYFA

[2] = biological target: T2, Solute carrier family 15 member 1 (Homo sapiens) (UniProt P46059); test: Activity of human PepT1 expressed in xenopus laevis oocyte assessed as induction of inward current at 5 mM
T2 sequence (whole entry): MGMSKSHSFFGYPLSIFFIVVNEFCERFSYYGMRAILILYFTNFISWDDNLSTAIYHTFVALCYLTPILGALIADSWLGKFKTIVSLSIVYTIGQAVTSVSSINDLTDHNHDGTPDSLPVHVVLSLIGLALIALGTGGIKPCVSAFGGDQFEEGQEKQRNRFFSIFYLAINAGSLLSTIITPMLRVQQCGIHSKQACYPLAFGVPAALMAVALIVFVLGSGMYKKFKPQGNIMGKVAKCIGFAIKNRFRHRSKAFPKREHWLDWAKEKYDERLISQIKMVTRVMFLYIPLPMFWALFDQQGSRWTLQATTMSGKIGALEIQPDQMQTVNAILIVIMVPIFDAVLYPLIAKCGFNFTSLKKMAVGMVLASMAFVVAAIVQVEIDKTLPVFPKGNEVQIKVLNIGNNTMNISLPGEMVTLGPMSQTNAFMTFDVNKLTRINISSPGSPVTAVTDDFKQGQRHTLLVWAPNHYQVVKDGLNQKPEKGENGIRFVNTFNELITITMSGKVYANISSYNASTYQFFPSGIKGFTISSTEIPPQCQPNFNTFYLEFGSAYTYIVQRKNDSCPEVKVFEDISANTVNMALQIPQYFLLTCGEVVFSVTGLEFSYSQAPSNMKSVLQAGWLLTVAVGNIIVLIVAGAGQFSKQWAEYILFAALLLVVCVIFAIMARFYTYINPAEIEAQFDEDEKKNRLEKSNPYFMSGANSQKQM

[3] = biological target: T1, Sodium/glucose cotransporter 1 (Homo sapiens); test: Reversal of inhibition of human SGLT1 expressed in xenopus laevis oocyte assessed as inhibition of methyl-alpha-D-[14C]glucopyranoside uptake at 75 pmol after 1 hr in presence of D-glucose relative to control
[4] = biological target: T1, Sodium/glucose cotransporter 1 (Homo sapiens); test: Reversal of inhibition of human SGLT1 expressed in xenopus laevis oocyte assessed as inhibition of methyl-alpha-D-[14C]glucopyranoside uptake at 75 pmol after 1 hr in presence of D-fructose relative to control
[5] = biological target: T1, Sodium/glucose cotransporter 1 (Homo sapiens); test: Reversal of inhibition of human SGLT1 expressed in xenopus laevis oocyte by measuring inhibition of methyl-alpha-D-[14C]glucopyranoside uptake after 1 hr assessed concentration required for 50% protective high affinity in presence of 2-deoxyglucose relative to control
[6] = biological target: T1, Sodium/glucose cotransporter 1 (Homo sapiens); test: Reversal of inhibition of human SGLT1 expressed in xenopus laevis oocyte assessed as inhibition of methyl-alpha-D-[14C]glucopyranoside uptake at 75 pmol after 1 hr in presence of 2-deoxyglucose relative to control
[7] = biological target: T1, Sodium/glucose cotransporter 1 (Homo sapiens); test: Reversal of inhibition of human SGLT1 expressed in xenopus laevis oocyte assessed as inhibition of methyl-alpha-D-[14C]glucopyranoside uptake at 75 pmol after 1 hr in presence of methyl-alpha-D-glucopyranoside relative to control
[8] = biological target: T1, Sodium/glucose cotransporter 1 (Homo sapiens); test: Reversal of inhibition of human SGLT1 expressed in xenopus laevis oocyte by measuring inhibition of methyl-alpha-D-[14C]glucopyranoside uptake after 1 hr assessed concentration required for 50% protective high affinity in presence of methyl-alpha-D-glucopyranoside relative to control
[9] = biological target: T1, Sodium/glucose cotransporter 1 (Homo sapiens); test: Reversal of inhibition of human SGLT1 expressed in xenopus laevis oocyte by measuring inhibition of methyl-alpha-D-[14C]glucopyranoside uptake after 1 hr assessed concentration required for 50 % protective high affinity in presence of D-glucose relative to control
[10] = system: Small intestine; test: Decrease of D-glucose absorption in perfused rat small intestine at 15 mM relative to control; format: functional; set-up: scale not given: the % may be the effect or the level left
[11] = substrate: NC(=O)CC[C@H](N)C(=O)N[C@@H](CO)C(=O)N1CCC[C@H]1C(=O)O; test: Activity of human PepT1 expressed in xenopus laevis oocyte assessed as induction of inward current

Molecule: CC(=O)N1CCC[C@H]1C(=O)N[C@H](C(=O)N[C@@H](CCC(N)=O)C(=O)O)[C@@H](C)O (Ac-Pro-Thr-Gln-OH)
Activity [1]: Active

Molecule: Ac-SVQPCQENQ-OH
inhibition [1]: 55%

Molecule: CC(=O)N[C@@H](CCC(N)=O)C(=O)N[C@@H](CS)C(=O)N1CCC[C@H]1C(=O)O (Ac-Gln-Cys-Pro-OH)
Activity [2]: Active
Activity [1]: inactive

Molecule: CC(=O)N1CCC[C@H]1C(=O)N[C@@H](CO)C(=O)N[C@@H](CCC(N)=O)C(=O)O (Ac-Pro-Ser-Gln-OH)
Activity [1]: 44%

B1: Solute carrier family 15 member 1 (Homo sapiens), P46059 (protein)
chain: T2 sequence (whole entry)
Km [11]: 4.2 mM

Continued, in another order:

Activity [1]: Active
Molecule: CC(=O)N1CCC[C@H]1C(=O)NCC(=O)N[C@@H](CCC(N)=O)C(=O)O (Ac-Pro-Gly-Gln-OH)

Activity [1]: Active
Molecule: CC(=O)N[C@@H](CCC(N)=O)C(=O)N[C@@H](CCC(=O)O)C(=O)N1CCC[C@H]1C(=O)O (Ac-Gln-Glu-Pro-OH)

Activity [2]: Active
Molecule: NCC(=O)N[C@@H](CCC(N)=O)C(=O)O (H-Gly-Gln-OH)

Activity [1]: Active
Molecule: CC(=O)N1CCC[C@H]1C(=O)N[C@@H](CC(C)C)C(=O)N[C@@H](CCC(N)=O)C(=O)O (Ac-Pro-Leu-Gln-OH)

Activity [3]: Active
Activity [4]: Active
Activity [5]: 11.9 µM
Activity [6]: Active
Activity [7]: Active
Activity [8]: 53 µM
Activity [1]: Active
Molecule: NC(=O)CC[C@H](N)C(=O)N[C@@H](CS)C(=O)N1CCC[C@H]1C(=O)O (H-Gln-Cys-Pro-OH)

Activity [3]: Active
Activity [4]: Active
Activity [5]: 11.9 µM
Activity [9]: 30 µM
Activity [6]: Active
Activity [7]: Active
Activity [2]: Active
Activity [8]: 53 µM
Activity [1]: Active
Molecule: NC(=O)CC[C@H](N)C(=O)N[C@@H](CO)C(=O)N1CCC[C@H]1C(=O)O (H-Gln-Ser-Pro-OH)
Activity [10]: 30%

Activity [1]: Active
Molecule: CC(=O)N1CCC[C@H]1C(=O)N1CCC[C@H]1C(=O)N[C@@H](CCC(N)=O)C(=O)O (Ac-Pro-Pro-Gln-OH)

Reference: ChEMBL document CHEMBL1156499, “Tripeptides of RS1 (RSC1A1) inhibit a monosaccharide-dependent exocytotic pathway of Na+-D-glucose cotransporter SGLT1 with high affinity” (J Biol Chem, 2007)
